Results on 3 compounds are retold here after patent publication US9811635B2, “Immune and oxygen system measuring and drug screening method and apparatus” (priority 2010, dated 2017).

One data set has as its system human blood. The data set is described as follows: Immunogram Analyzer run: effect of borate and aspirin on ROX/BOX of human blood. It is filed as cell-based. The conditions noted are these: for effect on ROX and BOX: compared to saline runs on a patient's blood; for BOX / ROX / ROXNO / ROXO2: human blood aged 5 days at room temperature, 0.10 ml blood, 0.9 ml saline. An excerpt: (§1) First, a testing apparatus having a sample well 10 or cell with a sensor or probe 20 and a reader/processor 30 is provided. […] The testing probes are inserted into the cell and the testing apparatus is calibrated so that the reading for levels of signaling materials is at zero. For example, a compound A, such as signaling material-free saline solution can be added to cell E derive an instrument baseline reading free of signaling material. Alternatively, a gas that is free of signaling material can be bubbled into the cell.
Once a baseline showing a zero reading for signaling materials is established, an amount of blood D is added to cell E. This amount of blood D can be a small quantity, such as between about 0.02 mL and about 0.10 mL, of freshly drawn or frozen blood from a test individual or patient. For convenience, a 3.00 mL sample of anticoagulated blood may be frozen for later analysis. Very small samples of blood, such as less than about 0.02 mL, may also be analyzed.
(§2) An initial reading is made of the levels of signaling materials in the sample prior to any stress being imposed. The mixture of compound A and blood D is then exposed to an initial stress B. A suitable stress would be physical shear stress produced by the administering syringe and/or a rotating magnetic stirrer. The sensor within the cell E then determines a drop in concentration of signaling materials, which is presumably brought on by the addition of stress B. Generally, this drop in signaling materials concentration yields the value of BOX, which is correlated to the ability of the system to incorporate signaling materials for transport. Following this drop, any rise in concentration of signaling materials yields the value of ROX, which correlates to the capacity of the system to provide a reservoir of signaling materials.
The sensor of the testing apparatus preferably includes two or more sensors—one may be a membrane-based oxygen electrode 22, such as a polarographic Clark oxygen electrode, which measures O2, NO, H2S and other signaling materials that are unbound and can thus permeate through the membrane. In polarographic sensors, an anode, which is polarized, and a cathode are immersed in an electrolyte, into which oxygen and other signaling materials, permeates through the membrane. The anode/cathode pair causes current to flow in direct proportion to the amount of signaling material, such as oxygen, entering the system. The magnitude of the current thus directly correlates to the amount of signaling material entering the probe or sensor. It would be apparent that a membrane-based sensor necessarily depletes the sample of the material being tested as a result of consumption, yet the level of material consumed by the sensor is considered herein to be of an order of magnitude as to be insignificant for practical purposes.
The other sensor 24 or probe may be an optical fluorescence dissolved oxygen analyzer, such as an Ocean Optics ruthenium-coated fiber optical light emitting diode (LED) probe, and can also include other suitable light based devices, including a laser (hereinafter referred to collectively as an “optical sensor”), which determines an amount of value for O2 and the bundled O2 reservoir (ROXO2). Other sensors, such as chip-based sensors, may also be used on the basis of price, convenience, and sensitivity to new signaling and reactive substances.
As used herein, “ROXO2” is determinable O2 reservoir, and “ROXNO” is determinable NO reservoir. When bundled by the blood, and, in particular, the white blood cells, which are preparing signaling materials for use by the body, ROXO2 and ROXNO are unable to travel through the membrane sensor. However, after a BOX event occurs, increased levels of signaling materials in the sample, as determined by either the membrane or optical sensor, which tend to track each other, yield amounts of ROXO2 and ROXNO. […]

A further data set concerns bovine blood standard. It is filed as cell-based.
Source text: as §1
as §2, with “Following this drop, any rise in concentration of signaling materials yields the value of ROX, which correlates to the capacity of the system to provide a reservoir of signaling materials.” left out
The other sensor 24 or probe may be an optical fluorescence dissolved oxygen analyzer, such as an Ocean Optics ruthenium-coated fiber optical light emitting diode (LED) probe, and can also include other suitable light based devices, including a laser (hereinafter referred to collectively as an “optical sensor”), which determines an amount of value for O2 and the bundled O2 reservoir (ROXO2). […]
Between these two or more sensors, therefore, the testing provides a reading for O2, NO, ROXO2, and NO that is in a bundled reservoir (ROXNO), as shown in FIGS. 6 and 7. […] Thus, the readings from the membrane probe and the optical probe together provide a total concentration of BOX and ROX (ROXO2+ROXNO) in the sample after exposure to physical stress B. Also, the slopes of the curves in FIGS. 6 and 7 yield valuable information with respect to the rates of reaction of these components. […]

In the case of `CC(=O)Oc1ccccc1C(=O)O` [Aspirin, aspirin], in the data set on human blood, the “effect on ROX and BOX” value is “affect ROX and BOX”; the BOX is listed as 35% of air saturation; the ROX is 74% of air saturation; the ROXNO is 34% of air saturation. The ROXO2 with human blood is listed as 29% of air saturation. Besides, in the data set on human blood (final run of FIG. 6, human blood), the “release of NO” value is recorded as “very rapid releases of NO”. For the same compound, the “rise of NO” value in the data set on human blood (in 2 seconds, human blood) was “a 37% rise”.

As to acid-citrate-dextrose [ACD], in the data set on bovine blood standard, the “Increases ROXO2 by” value worked out at 10%, the “Lowers BOX by” value is listed as “Lowers BOX by 8%” and the “Lowers ROXNO by” value was 25%.

In the case of borate, in the data set with human blood, the “effect on ROX and BOX” value is “increases of BOX and ROX”; the BOX is on record as 41% of air saturation; the ROX is listed as 79% of air saturation; the ROXNO was 31% of air saturation. Moreover, the ROXO2 in the data set on human blood is reported as 27% of air saturation. In the data set on human blood (listed as borate eye wash), the “effect on ROX and BOX” value is “affect ROX and BOX”.
